From US10420341B2, “Herbicidal phenylpyrimidines” (BASF SE, priority 2015, dated 2019)

Tests used:
AMARE = experiment: greenhouse post-emergence herbicidal test; type: in vivo, Amaranthus retroflexus; conditions: post-emergence method, scale from 0 to 100
Procedure, shortened: (§1)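 Read-out is a visual 0–100 injury rating, 100 meaning complete destruction of at least aerial parts and 0 meaning normal growth. It was taken over 2–4 weeks after plants 3–15 cm tall were treated with compound suspended or emulsified in water.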

ALOMY [1] = experiment: greenhouse post-emergence herbicidal test; type: in vivo, Alopercurus myosuroides; conditions: post-emergence method, scale from 0 to 100
Procedure, shortened: as §1

SETVI = experiment: greenhouse post-emergence herbicidal test; type: in vivo, Setaria viridis; conditions: post-emergence method, scale from 0 to 100
Description: (§2) The seeds of the test plants were sown separately for each species. For the post-emergence treatment, the test plants were first grown to a height of 3 to 15 cm, depending on the plant habit, and only then treated with the active ingredients which had been suspended or emulsified in water. For this purpose, the test plants were either sown directly and grown in the same containers, or they were first grown separately as seedlings and transplanted into the test containers a few days prior to treatment. Depending on the species, the plants were kept at 10-25° C. or 20-35° C., respectively. The test period extended over 2 to 4 weeks. During this time, the plants were tended, and their response to the individual treatments was evaluated. Evaluation was carried out using a scale from 0 to 100. 100 means no emergence of the plants, or complete destruction of at least the aerial moieties, and 0 means no damage, or normal course of growth. […] The plants used in the greenhouse experiments were of the following species: [table]

ECHCG [2] = experiment: greenhouse post-emergence herbicidal test; type: in vivo, Echinocloa crus-galli; conditions: post-emergence method, scale from 0 to 100
Procedure, shortened: as §1

ALOMY [3] = experiment: greenhouse pre-emergence herbicidal test; type: in vivo, Alopercurus myosuroides; conditions: pre-emergence method, application rate 500 g/ha, scale from 0 to 100
Description: The seeds of the test plants were sown separately for each species. For the pre-emergence treatment, the active ingredients, which had been suspended or emulsified in water, were applied directly after sowing by means of finely distributing nozzles. The containers were irrigated gently to promote germination and growth and subsequently covered with transparent plastic hoods until the plants had rooted. This cover caused uniform germination of the test plants, unless this had been impaired by the active ingredients. Depending on the species, the plants were kept at 10-25° C. or 20-35° C., respectively. The test period extended over 2 to 4 weeks. During this time, the plants were tended, and their response to the individual treatments was evaluated. Evaluation was carried out using a scale from 0 to 100. 100 means no emergence of the plants, or complete destruction of at least the aerial moieties, and 0 means no damage, or normal course of growth. […] The plants used in the greenhouse experiments were of the following species: [table]

POLCO = experiment: greenhouse post-emergence herbicidal test; type: in vivo, Polygonum convolvulus; conditions: post-emergence method, application rate 500 g/ha, scale from 0 to 100
Procedure, shortened: as §1

APESV = experiment: greenhouse pre-emergence herbicidal test; type: in vivo, Apera spica-venti; conditions: pre-emergence method, scale from 0 to 100
Procedure, shortened: (§3)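 Compounds suspended or emulsified in water, sprayed pre-emergence directly after sowing; containers covered until rooting, kept at 10-25 °C or 20-35 °C by species. Damage scored 0-100 (100 = no emergence or complete destruction of aerial parts) after 2 to 4 weeks.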

ECHCG [4] = experiment: greenhouse pre-emergence herbicidal test; type: in vivo, Echinocloa crus-galli; conditions: pre-emergence method, scale from 0 to 100
Procedure, shortened: as §3

AVEFA = experiment: greenhouse post-emergence herbicidal test; type: in vivo, Avena fatua; conditions: post-emergence method, scale from 0 to 100
Procedure, shortened: as §1

ABUTH = experiment: greenhouse post-emergence herbicidal test; type: in vivo, Abutilon theophrasti; conditions: post-emergence method, application rate 500 g/ha, scale from 0 to 100
Description: as §2

CCOC(=O)c1nc(OC)ncc1-c1cc(C)c(F)cc1C [example 64]
herbicidal activity against AMARE (AMARE; application rate 1000 g/ha): very good (a very good herbicidal activity is given at values of at least 85) | herbicidal activity against ALOMY (ALOMY [1]; application rate 1000 g/ha): very good (a very good herbicidal activity is given at values of at least 85) | herbicidal activity against SETVI (SETVI; application rate 1000 g/ha): very good (a very good herbicidal activity is given at values of at least 85)

CSc1ncc(-c2ccc(C#N)cc2C)c(C(=O)O)n1 [example 96]
herbicidal activity against AMARE (AMARE; application rate 2000 g/ha): very good (a very good herbicidal activity is given at values of at least 85) | herbicidal activity against SETVI (SETVI; application rate 2000 g/ha): very good (a very good herbicidal activity is given at values of at least 85)

CSc1ncc(-c2ccc(C(F)(F)F)cc2C)c(C(=O)O)n1 [example 99]
herbicidal activity against AMARE (AMARE; application rate 2000 g/ha): very good (a very good herbicidal activity is given at values of at least 85) | herbicidal activity against ECHCG (ECHCG [2]; application rate 2000 g/ha): good (A good herbicidal activity is given at values of at least 70) | herbicidal activity against SETVI (SETVI; application rate 2000 g/ha): very good (a very good herbicidal activity is given at values of at least 85)

COc1ccc(-c2cnc(SC)nc2C(=O)O)c(OC)c1 [example 109]
herbicidal activity against SETVI (SETVI; application rate 2000 g/ha): good (A good herbicidal activity is given at values of at least 70)

Cc1cc(F)c(-c2cnc(C3CC3)nc2C(=O)O)cc1Cl [example 137]
herbicidal activity against AMARE (AMARE; application rate 1000 g/ha): very good (a very good herbicidal activity is given at values of at least 85) | herbicidal activity against SETVI (SETVI; application rate 1000 g/ha): very good (a very good herbicidal activity is given at values of at least 85)

O=C(O)c1nc(C2CC2)ncc1-c1c(Cl)cc(F)cc1Cl [example 147]
herbicidal activity against ALOMY (ALOMY [3]): very good (a very good herbicidal activity is given at values of at least 85) | herbicidal activity against ALOMY (ALOMY [1]; application rate 500 g/ha): very good (a very good herbicidal activity is given at values of at least 85) | herbicidal activity against POLCO (POLCO): very good (a very good herbicidal activity is given at values of at least 85) | herbicidal activity against APESV (APESV; application rate 500 g/ha): very good (a very good herbicidal activity is given at values of at least 85)

Cc1ccc(F)cc1-c1cnc(C2CC2)nc1C(=O)O [example 163]
herbicidal activity against ECHCG (ECHCG [4]; application rate 1000 g/ha): very good (a very good herbicidal activity is given at values of at least 85) | herbicidal activity against ECHCG (ECHCG [2]; application rate 1000 g/ha): very good (a very good herbicidal activity is given at values of at least 85) | herbicidal activity against SETVI (SETVI; application rate 1000 g/ha): very good (a very good herbicidal activity is given at values of at least 85) | herbicidal activity against APESV (APESV; application rate 1000 g/ha): very good (a very good herbicidal activity is given at values of at least 85)

O=C(O)c1nc(C2CC2)ncc1-c1ccccc1C(F)(F)F [example 176]
herbicidal activity against ALOMY (ALOMY [3]): very good (a very good herbicidal activity is given at values of at least 85) | herbicidal activity against AVEFA (AVEFA; application rate 500 g/ha): very good (a very good herbicidal activity is given at values of at least 85) | herbicidal activity against POLCO (POLCO): very good (a very good herbicidal activity is given at values of at least 85) | herbicidal activity against APESV (APESV; application rate 500 g/ha): very good (a very good herbicidal activity is given at values of at least 85)

COC(=O)c1nc(C2CC2)ncc1-c1ccccc1Cl [example 201]
herbicidal activity against ECHCG (ECHCG [4]; application rate 500 g/ha): very good (a very good herbicidal activity is given at values of at least 85) | herbicidal activity against ALOMY (ALOMY [3]): very good (a very good herbicidal activity is given at values of at least 85) | herbicidal activity against ALOMY (ALOMY [1]; application rate 500 g/ha): very good (a very good herbicidal activity is given at values of at least 85) | herbicidal activity against POLCO (POLCO): very good (a very good herbicidal activity is given at values of at least 85) | herbicidal activity against APESV (APESV; application rate 500 g/ha): very good (a very good herbicidal activity is given at values of at least 85)

COC(=O)c1nc(C2CC2)ncc1-c1cc(OC)ccc1Cl [example 206]
herbicidal activity against ECHCG (ECHCG [4]; application rate 500 g/ha): very good (a very good herbicidal activity is given at values of at least 85) | herbicidal activity against ECHCG (ECHCG [2]; application rate 500 g/ha): good (A good herbicidal activity is given at values of at least 70) | herbicidal activity against SETVI (SETVI; application rate 500 g/ha): good (A good herbicidal activity is given at values of at least 70) | herbicidal activity against APESV (APESV; application rate 500 g/ha): very good (a very good herbicidal activity is given at values of at least 85)

COC(=O)c1nc(C2CC2)ncc1-c1ccccc1[N+](=O)[O-] [example 223]
herbicidal activity against ECHCG (ECHCG [4]; application rate 1000 g/ha): very good (a very good herbicidal activity is given at values of at least 85) | herbicidal activity against ECHCG (ECHCG [2]; application rate 1000 g/ha): very good (a very good herbicidal activity is given at values of at least 85) | herbicidal activity against SETVI (SETVI; application rate 1000 g/ha): very good (a very good herbicidal activity is given at values of at least 85) | herbicidal activity against APESV (APESV; application rate 1000 g/ha): very good (a very good herbicidal activity is given at values of at least 85)

COC(=O)c1nc(C2CC2)ncc1-c1cc(F)ccc1C [example 226]
herbicidal activity against ECHCG (ECHCG [4]; application rate 500 g/ha): very good (a very good herbicidal activity is given at values of at least 85) | herbicidal activity against ALOMY (ALOMY [3]): very good (a very good herbicidal activity is given at values of at least 85) | herbicidal activity against ALOMY (ALOMY [1]; application rate 500 g/ha): very good (a very good herbicidal activity is given at values of at least 85) | herbicidal activity against POLCO (POLCO): very good (a very good herbicidal activity is given at values of at least 85) | herbicidal activity against APESV (APESV; application rate 500 g/ha): good (A good herbicidal activity is given at values of at least 70)

CCOC(=O)c1nc(C2CC2)ncc1-c1ccccc1Cl [example 251]
herbicidal activity against AMARE (AMARE; application rate 500 g/ha): very good (a very good herbicidal activity is given at values of at least 85) | herbicidal activity against ALOMY (ALOMY [3]): very good (a very good herbicidal activity is given at values of at least 85) | herbicidal activity against APESV (APESV; application rate 500 g/ha): very good (a very good herbicidal activity is given at values of at least 85) | herbicidal activity against ABUTH (ABUTH): very good (a very good herbicidal activity is given at values of at least 85)

COC(=O)C(C)(C)SC(=O)c1nc(C2CC2)ncc1-c1ccccc1Cl [example 283]
herbicidal activity against ALOMY (ALOMY [3]): very good (a very good herbicidal activity is given at values of at least 85) | herbicidal activity against AVEFA (AVEFA; application rate 500 g/ha): very good (a very good herbicidal activity is given at values of at least 85) | herbicidal activity against POLCO (POLCO): very good (a very good herbicidal activity is given at values of at least 85) | herbicidal activity against APESV (APESV; application rate 500 g/ha): very good (a very good herbicidal activity is given at values of at least 85)

CNC(=O)c1nc(C2CC2)ncc1-c1ccccc1Cl [example 289]
herbicidal activity against ECHCG (ECHCG [4]; application rate 1000 g/ha): good (A good herbicidal activity is given at values of at least 70) | herbicidal activity against SETVI (SETVI; application rate 1000 g/ha): good (A good herbicidal activity is given at values of at least 70) | herbicidal activity against APESV (APESV; application rate 1000 g/ha): very good (a very good herbicidal activity is given at values of at least 85)

O=C(O)c1nc(C2CC2)ncc1-c1c(F)cccc1I [example 317]
herbicidal activity against ECHCG (ECHCG [4]; application rate 1000 g/ha): very good (a very good herbicidal activity is given at values of at least 85) | herbicidal activity against ALOMY (ALOMY [1]; application rate 1000 g/ha): very good (a very good herbicidal activity is given at values of at least 85) | herbicidal activity against AVEFA (AVEFA; application rate 1000 g/ha): very good (a very good herbicidal activity is given at values of at least 85) | herbicidal activity against SETVI (SETVI; application rate 1000 g/ha): very good (a very good herbicidal activity is given at values of at least 85) | herbicidal activity against APESV (APESV; application rate 1000 g/ha): very good (a very good herbicidal activity is given at values of at least 85)
